Experimental data: the supplement of paper PMC4862054
Values joined by “and” are separate entries in the source; they are usually repeats but may differ in a detail not shown here. Equal entries are not always repeated.

Experiments:
Settings in all cases: incubation time: 72 h
SK-BR-3 = assay: drug sensitivity score (DSS), CellTiter-Blue viability (DSS (AUC-based score)); higher = stronger viability inhibition; extreme values may be limits of the assay
Description: (§1)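 DSRT with the CellTiter-Blue (resazurin reduction) viability readout, fluorescence 560/590 nm, 72 h incubation. Plates were normalised to DMSO and benzethonium chloride controls. DSS is computed from the area under the fitted dose-response curve (5 or 9 concentrations).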

HCC1937 = assay: as above
Description: as §1

MDA-MB-231 [1] = assay: as above
Description: as §1

BT-549 = assay: as above
Description: as §1

HCC1143 = assay: as above
Description: as §1

CAL-148 = assay: as above
Description: as §1

CAL-85-1 [2] = assay: as above
Description: as §1

MDA-MB-453 [3] = assay: as above
Description: as §1

DU-4475 = assay: as above
Description: as §1

HDQ-P1 [4] = assay: as above
Description: as §1

MFM-223 = assay: as above
Description: as §1

MDA-MB-436 [5] = assay: as above
Description: as §1

MDA-MB-468 [6] = assay: as above
Description: as §1

CAL-120 [7] = assay: as above
Description: as §1

Hs578T [8] = assay: as above
Description: as §1

HCC1599 = assay: as above
Description: as §1

BT-474 = assay: as above
Description: as §1

CAL-51 = assay: as above
Description: as §1

MDA-MB-231 [9] = assay: drug sensitivity score (DSS), CellTox Green (DSS (AUC-based score)); higher = stronger drug effect (viability inhibition or cytotoxicity); extreme values may be limits of the assay
Method in brief: (§2)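 For 72 h, breast cancer cell lines seeded at 20 µl suspension per well in 384-well plates were incubated with compound at 5 concentrations in 10-fold steps spanning a 10,000-fold range that differed by compound. The first reading was CellTox Green fluorescence at 485/520 nm, and the second was CellTiter-Glo luminescence after 10 min at room temperature. Both were normalised per plate to 0.1 % DMSO and a positive kill control, and the drug sensitivity score was obtained from the area under the fitted dose-response curve.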

CAL-85-1 [10] = assay: as above
Method in brief: as §2

MDA-MB-453 [11] = assay: as above
Method in brief: as §2

HDQ-P1 [12] = assay: as above
Method in brief: as §2

MDA-MB-436 [13] = assay: as above
Method in brief: as §2

MDA-MB-468 [14] = assay: as above
Method in brief: as §2

CAL-120 [15] = assay: as above
Method in brief: as §2

Hs578T [16] = assay: as above
Method in brief: as §2

SMILES	drug sensitivity score (SK-BR-3)	drug sensitivity score (HCC1937)	drug sensitivity score (MDA-MB-231 [1])	drug sensitivity score (BT-549)	drug sensitivity score (HCC1143)	drug sensitivity score (CAL-148)	drug sensitivity score (CAL-85-1 [2])	drug sensitivity score (MDA-MB-453 [3])	drug sensitivity score (DU-4475)	drug sensitivity score (HDQ-P1 [4])	drug sensitivity score (MFM-223)	drug sensitivity score (MDA-MB-436 [5])	drug sensitivity score (MDA-MB-468 [6])	drug sensitivity score (CAL-120 [7])	drug sensitivity score (Hs578T [8])	drug sensitivity score (HCC1599)	drug sensitivity score (BT-474)	drug sensitivity score (CAL-51)	drug sensitivity score (MDA-MB-231 [9])	drug sensitivity score (CAL-85-1 [10])	drug sensitivity score (MDA-MB-453 [11])	drug sensitivity score (HDQ-P1 [12])	drug sensitivity score (MDA-MB-436 [13])	drug sensitivity score (MDA-MB-468 [14])	drug sensitivity score (CAL-120 [15])	drug sensitivity score (Hs578T [16])
CC1(C)CCC(c2ccc(Cl)cc2)=C(CN2CCN(c3ccc(C(=O)NS(=O)(=O)c4ccc(N[C@H](CCN5CCOCC5)CSc5ccccc5)c(S(=O)(=O)C(F)(F)F)c4)cc3)CC2)C1 [Navitoclax]	0	0	7.75	3.17	0	4.37	0	0	17.2	9.87	2.7	0	3.12	6.12	0	5.97	0	0	21.5	3.45	0	17.2	0	6.68	10.9	0
CN(Cc1cnc2nc(N)nc(N)c2n1)c1ccc(C(=O)N[C@@H](CCC(=O)O)C(=O)O)cc1 [Methotrexate]	16.2	0	0	0	10.5	9.98	9.69	0	0	0	0	0	18.6	17.3	4.17	0	0	15.1	0	0.579	0.671	0	2.33	0	0	7.51
CC(C)(C)NC(=O)[C@H]1CC[C@H]2[C@@H]3CC[C@H]4NC(=O)C=C[C@]4(C)[C@H]3CC[C@]12C [Finasteride]	0	0	0	0	0	1.45	0	1.81	3.01	0	1.79	0	0	0	0	0	0	1.63	0	0	0	0	0	0	0	2.04
Cc1cn(-c2cc(NC(=O)c3ccc(C)c(Nc4nccc(-c5cccnc5)n4)c3)cc(C(F)(F)F)c2)cn1 [Nilotinib]	0	6.24 and 6.45	4.55 and 5.18	6.16 and 6.02	0	0	0	0	0	0	0	0	0	0	0	0	0	0	3.55	0	0	0	0	0	0	0.546
CNC(=O)c1ccccc1Sc1ccc2c(/C=C/c3ccccn3)n[nH]c2c1 [Axitinib]	0	5.79	2.62	4.37	2.06	5.17	4.41	7.1	6.24	4.73	11.4	13.7	1.45	0	0	0	0	6.1	0	0	0	0	0	0	0	0
Nc1ccn([C@@H]2O[C@H](CO)[C@@H](O)C2(F)F)c(=O)n1 [Gemcitabine]	13.4	16.2	7.17	6.97	13.2	16.9	12	11	10.7	0	2.55	9.62	16.1	14.7	7.89	7.74	0	17.6	0	4.04	0	0	0	19.7	0	0
